# Measured values from US11390604B2 (Hoffmann-La Roche Inc., priority 2019, dated 2022).
# Structures can show the parent of a compound that is named as a salt.
# Tested on: Acinetobacter baumannii ATCC 17961
# Assay: Antimicrobial susceptibility testing: 90% growth inhibitory concentration (IC90) determination
# Assay type: cell-based
# Settings: ATCC17961, Acinetobacter baumannii ATCC 17961, Iso-Sensitest broth, read-out: ATCC 17961 IC90
# Summary of the method: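 Growth was followed kinetically by OD600 at 20-min intervals for 16 h at 35±2 °C, with ~5×10^5 CFU/ml in Iso-Sensitest broth. Compounds were tested as twofold dilutions (e.g. 50–0.097 μM final). The concentration giving 90% inhibition of log-phase growth was reported.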
row,SMILES,IC90 [nM]
1,"C=CCn1cc(-c2cnc(C(=O)Nc3ccc(C(=O)NC4C5CN(C(=O)C6CCNCC6)CC54)c(Cl)c3)n2C)c(C(F)(F)F)n1 (centres unmarked) [Example 215, 5-(1-allyl-3-(trifluoromethyl)-1H-pyrazol-4-yl)-N-(3-chloro-4-((3-(piperidine-4-carbonyl)-3-azabicyclo[3.1.0]hexan-6-yl)carbamoyl)phenyl)-1-methyl-1H-imidazole-2-carboxamide formate]",243
2,"Cn1c(-c2cn(C3CC3)nc2C(F)(F)F)cnc1C(=O)Nc1ccc(C(=O)N2CC[C@@H](CN)C2)c(Cl)c1 [Example 217, (S)-N-(4-(3-(aminomethyl)pyrrolidine-1-carbonyl)-3-chlorophenyl)-5-(1-cyclopropyl-3-(trifluoromethyl)-1H-pyrazol-4-yl)-1-methyl-1H-imidazole-2-carboxamide hydrochloride]",244
3,"CCc1cc(NC(=O)c2ncc(-c3cn(CC(F)F)nc3C(F)(F)F)n2C)ccc1C(=O)NCCCCCNCC(=O)OC(C)(C)C [Example 219, tert-butyl (5-(4-(5-(1-(2,2-difluoroethyl)-3-(trifluoromethyl)-1H-pyrazol-4-yl)-1-methyl-1H-imidazole-2-carboxamido)-2-ethylbenzamido)pentyl)glycinate]",245
4,"Cn1c(-c2cn(CC3CC3(F)F)nc2C(F)(F)F)cnc1C(=O)Nc1ccc(C(=O)NC2C3CN(C(=O)C4CCNCC4)CC32)c(Cl)c1 (centres unmarked) [Example 220, N-(3-chloro-4-((3-(piperidine-4-carbonyl)-3-azabicyclo[3.1.0]hexan-6-yl)carbamoyl)phenyl)-5-(1-((2,2-difluorocyclopropyl)methyl)-3-(trifluoromethyl)-1H-pyrazol-4-yl)-1-methyl-1H-imidazole-2-carboxamide formate]",245
5,"Cn1c(-c2cn(C3CC3)nc2C(F)(F)F)cnc1C(=O)Nc1ccc(C(=O)NCCCCCN)c(Cl)c1 [Example 221, N-(4-((5-aminopentyl)carbamoyl)-3-chlorophenyl)-5-(1-cyclopropyl-3-(trifluoromethyl)-1H-pyrazol-4-yl)-1-methyl-1H-imidazole-2-carboxamide hydrochloride]",246
6,"C#CCn1cc(-c2cnc(C(=O)Nc3ccc(C(=O)NCCOCC(C)(C)N)c(CC)c3)n2C)c(C(F)(F)F)n1 [Example 222, N-[4-[2-(2-amino-2-methyl-propoxy)ethylcarbamoyl]-3-ethyl-phenyl]-1-methyl-5-[1-prop-2-ynyl-3-(trifluoromethyl)pyrazol-4-yl]imidazole-2-carboxamide; formic acid]",250
7,"Cn1c(-c2cn(C3CC3)nc2C(F)(F)F)cnc1C(=O)Nc1ccc(C(=O)N2CCN(C(=O)[C@@H]3CCCNC3)CC2)c(Cl)c1 [Example 223, (R)-N-(3-chloro-4-(4-(piperidine-3-carbonyl)piperazine-1-carbonyl)phenyl)-5-(1-cyclopropyl-3-(trifluoromethyl)-1H-pyrazol-4-yl)-1-methyl-1H-imidazole-2-carboxamide hydrochloride]",252
8,"Cn1c(-c2cn(CC3CC3)nc2C(F)(F)F)cnc1C(=O)Nc1ccc(C(=O)NC2C3CN(C(=O)C4CCNCC4)CC32)c(Cl)c1 (centres unmarked) [Example 227, N-(3-chloro-4-((3-(piperidine-4-carbonyl)-3-azabicyclo[3.1.0]hexan-6-yl)carbamoyl)phenyl)-5-(1-(cyclopropylmethyl)-3-(trifluoromethyl)-1H-pyrazol-4-yl)-1-methyl-1H-imidazole-2-carboxamide formate]",262
9,"Cn1c(-c2cn(C3CC3)nc2C(F)(F)F)cnc1C(=O)Nc1ccc(C(=O)N2CCN(CCN)CC2)c(Cl)c1 [Example 228, N-(4-(4-(2-aminoethyl)piperazine-1-carbonyl)-3-chlorophenyl)-5-(1-cyclopropyl-3-(trifluoromethyl)-1H-pyrazol-4-yl)-1-methyl-1H-imidazole-2-carboxamide formate]",263

# Results, then the compound that gave them:
row,IC90 [nM],SMILES
1,240,"Cn1c(-c2cn(CC(F)F)nc2C(F)(F)F)cnc1C(=O)Nc1ccc(C(=O)N2CCN(C(=O)[C@H]3[C@@H]4CNC[C@@H]43)CC2)c(F)c1 [Example 213, rac-N-(4-(4-((1R,5S,6r)-3-azabicyclo[3.1.0]hexane-6-carbonyl)piperazine-1-carbonyl)-3-fluorophenyl)-5-(1-(2,2-difluoroethyl)-3-(trifluoromethyl)-1H-pyrazol-4-yl)-1-methyl-1H-imidazole-2-carboxamide]"
2,241,"Cn1c(-c2cn(C3CC3)nc2C(F)(F)F)cnc1C(=O)Nc1ccc(C(=O)N2CCN(C(=O)NCC3CNC3)CC2)c(Cl)c1 [Example 214, N-(azetidin-3-ylmethyl)-4-(2-chloro-4-(5-(1-cyclopropyl-3-(trifluoromethyl)-1H-pyrazol-4-yl)-1-methyl-1H-imidazole-2-carboxamido)benzoyl)piperazine-1-carboxamide formate]"
3,243,"Cn1c(-c2cn(C3CC3)nc2C(F)(F)F)cnc1C(=O)Nc1ccc(C(=O)N2CCN(C(=O)N3CC(N)C3)CC2)c(Cl)c1 [Example 216, N-(4-(4-(3-aminoazetidine-1-carbonyl)piperazine-1-carbonyl)-3-chlorophenyl)-5-(1-cyclopropyl-3-(trifluoromethyl)-1H-pyrazol-4-yl)-1-methyl-1H-imidazole-2-carboxamide formate]"
4,244,"Cn1c(-c2cn(CC3CC3)nc2C(F)(F)F)cnc1C(=O)Nc1ccc(C(=O)N2CCN(C(=O)N[C@H]3C[C@@H](N)C3)CC2)c(F)c1 [Example 218, N-((1s,3s)-3-aminocyclobutyl)-4-(4-(5-(1-(cyclopropylmethyl)-3-(trifluoromethyl)-1H-pyrazol-4-yl)-1-methyl-1H-imidazole-2-carboxamido)-2-fluorobenzoyl)piperazine-1-carboxamide; hydrochloride]"
5,256,"Cn1c(-c2cn(C3CC3)nc2C(F)(F)F)cnc1C(=O)Nc1ccc(C(=O)N2CCN(C(=O)C3CNC3)CC2)c(Cl)c1 [Example 224, N-(4-(4-(azetidine-3-carbonyl)piperazine-1-carbonyl)-3-chlorophenyl)-5-(1-cyclopropyl-3-(trifluoromethyl)-1H-pyrazol-4-yl)-1-methyl-1H-imidazole-2-carboxamide hydrochloride]"
6,256,"Cn1c(-c2cn(C3CC3)nc2C(F)(F)F)cnc1C(=O)Nc1ccc(C(=O)N2CCN(C(=O)N[C@H]3C[C@H](N)C3)CC2)c(Cl)c1 [Example 225, N-(3-aminocyclobutyl)-4-[2-chloro-4-[[5-[1-cyclopropyl-3-(trifluoromethyl)pyrazol-4-yl]-1-methylimidazole-2-carbonyl]amino]benzoyl]pipera-zine-1-carboxamide;formic acid]"
7,263,"Cn1c(-c2cn(C3CC3)nc2C(F)(F)F)cnc1C(=O)Nc1ccc(C(=O)N2CCN(C(=O)[C@@H]3CCNC3)CC2)c(Cl)c1 [Example 229, (R)-N-(3-chloro-4-(4-(pyrrolidine-3-carbonyl)piperazine-1-carbonyl)phenyl)-5-(1-cyclopropyl-3-(trifluoromethyl)-1H-pyrazol-4-yl)-1-methyl-1H-imidazole-2-carboxamide hydrochloride]"
8,266,"Cn1c(-c2cn(C3CC3)nc2C(F)(F)F)cnc1C(=O)Nc1ccc(C(=O)N2CCN(C(=O)[C@@H]3CC[C@@H](N)C3)CC2)c(Cl)c1 [Example 230, N-(4-(4-((1R,3R)-3-aminocyclopentane-1-carbonyl)piperazine-1-carbonyl)-3-chlorophenyl)-5-(1-cyclopropyl-3-(trifluoromethyl)-1H-pyrazol-4-yl)-1-methyl-1H-imidazole-2-carboxamide hydrochloride]"
